Experiment in all cases: Transcriptional activity, GAL4-PPAR LBD chimera / PLAP reporter in CV-1 cells
What all share (type): cell-based

One assay concerns the target T1, human PPAR α (Homo sapiens, UniProt Q07869).
T1 construct: human PPAR 167-468 (PPAR α); expressed in transfected cells; host or cells: CV-1 (ATCC CCL-70)
T1 sequence (Q07869 167-468): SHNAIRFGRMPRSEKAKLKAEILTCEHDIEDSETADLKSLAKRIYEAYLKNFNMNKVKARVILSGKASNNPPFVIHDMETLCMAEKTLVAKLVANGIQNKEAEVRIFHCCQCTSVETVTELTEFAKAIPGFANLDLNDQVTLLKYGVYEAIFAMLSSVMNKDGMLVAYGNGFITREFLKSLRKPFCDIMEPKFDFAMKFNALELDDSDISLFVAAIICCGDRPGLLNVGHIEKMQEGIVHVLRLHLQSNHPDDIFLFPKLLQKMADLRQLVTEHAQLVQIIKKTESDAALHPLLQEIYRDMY
The settings on record: GAL4-PPARα LBD, PLAP activity 24 hours after addition. From the text: (§1) A GAL4-PPAR LBD chimera expression vector was constructed by ligating human PPAR 167-468 (PPAR α), 138-440 (NUC-1) and 174-475 (PPARγ) amino acid regions (LBD: Ligand Binding Domain) to a yeast transcriptional factor GAL4 1-147 amino acid region. As the reporter gene, PLAP (Placental Alkaline Phosphatase) was used, and this was ligated downstream of a TK promoter containing a 5-copy GAL4 DNA binding element to construct a vector. As host cells, CV-1 (ATCC CCL-70) was used. That is, CV-1 cells were spread at a density of 5×10^5 cells on a 35-mm dish and cultured in 10% FCS/DMEM for 24 hours, and using FuGENE 6 transfection reagent, the cells were co-transfected with the GAL4-PPAR LBD expression vector and GAL4 DBD-TK-PLAP expression vector. 24 hours after this transfection, the cells were spread again on a 96-well plate at a density of 1×10^4/well and further cultured for 24 hours. After 24 hours, the medium was exchanged with DMEM containing 10% FCS, which was previously treated at 65° C. for inactivating intrinsic alkaline phosphatase, and a test compound was added at an arbitrary concentration. The transcriptional activity was determined in terms of PLAP activity secreted 24 hours after addition of the compound, to calculate EC50.
(§2) The PLAP activity was determined after adding 50 μl assay buffer and 50 μl chemoluminescence substrate to 10 μl culture supernatant and incubating the mixture at room temperature for 1 hour. In this way, transcription activities with respect to PPARα, PPARβ(δ) and PPARγ could be determined.

Assay [1] concerns the target T2, human PPAR β (NUC-1, PPARβ(δ)) (Homo sapiens, UniProt Q03181).
T2 construct: 138-440 (NUC-1); expressed in transfected cells; host or cells: CV-1 (ATCC CCL-70)
T2 sequence (Q03181 138-440): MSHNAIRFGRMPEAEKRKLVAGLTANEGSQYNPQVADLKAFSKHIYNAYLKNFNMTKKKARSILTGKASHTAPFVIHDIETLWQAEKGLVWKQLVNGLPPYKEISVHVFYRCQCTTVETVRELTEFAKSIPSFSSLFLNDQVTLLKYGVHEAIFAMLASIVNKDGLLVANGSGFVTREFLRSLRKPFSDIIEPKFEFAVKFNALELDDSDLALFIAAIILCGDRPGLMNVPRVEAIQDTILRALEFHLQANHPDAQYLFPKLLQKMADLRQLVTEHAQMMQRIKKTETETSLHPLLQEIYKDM
The settings on record: GAL4-PPARβ(δ) (NUC-1) LBD, PLAP activity 24 hours after addition.
Description: as §1, §2

The target of another assay is T3, human PPAR γ (Homo sapiens, UniProt P37231).
T3 construct: 174-475 (PPARγ); expressed in transfected cells; host or cells: CV-1 (ATCC CCL-70)
T3 sequence (P37231 174-475 isoform P37231-2): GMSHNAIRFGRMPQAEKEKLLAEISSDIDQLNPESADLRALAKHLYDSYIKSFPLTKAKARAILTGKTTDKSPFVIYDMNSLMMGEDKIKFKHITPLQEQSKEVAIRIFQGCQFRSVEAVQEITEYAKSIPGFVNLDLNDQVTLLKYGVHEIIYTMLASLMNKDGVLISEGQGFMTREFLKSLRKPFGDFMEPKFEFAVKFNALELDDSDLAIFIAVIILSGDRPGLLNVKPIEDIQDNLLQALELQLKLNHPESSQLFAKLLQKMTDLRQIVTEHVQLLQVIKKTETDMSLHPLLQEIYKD
The settings on record: GAL4-PPARγ LBD, PLAP activity 24 hours after addition.
Description: as §1, §2

Turning to `COc1ccc(-c2cccc(CC(=O)O)c2)cc1OCC(O)COc1ccc(C(C)(C)C)cc1` (stereo not shown) [Ex 365, {3′-[2-Hydroxy-3-(4-t-butylphenoxy)propoxy]-4′-methoxybiphenyl-3-yl}acetic Acid], the EC50 (as a rule, the concentration needed to bring the measured effect to its halfway point) on human PPAR α amounted to 1560 nM; in assay [1] it was 1140 nM; on human PPAR γ, 150 nM.
For `COc1ccc(-c2cccc(CC(=O)O)c2)cc1C#CCOc1ccc(C(F)(F)F)cc1` [Example 351, {4′-Methoxy-3′-[3-(4-trifluoromethylphenoxy)1-propynyl]biphenyl-3-yl}acetic Acid], in that order: 1820 nM, 160 nM and 1410 nM.
`Cc1ccc(-c2ccccc2CNC(=O)c2sc(-c3ccc(Cl)cc3)nc2C)cc1C(=O)O` [Example 257, 3-(2-[([2-(4-Chlorophenyl)-4-methyl-1,3-thiazol-5-yl]carbonylamino)methyl]phenyl)-6-methylbenzoic Acid] yielded an EC50 on human PPAR α of 29 nM.
On to `COc1ccc(-c2cccc(CC(=O)O)c2)cc1CCOC(=O)Nc1ccc(C(F)(F)F)cc1` [Example 267, 2-[5-(3-{2-[(4-Trifluoromethylanilinocarbonyl)oxy]ethyl}-4-methoxyphenyl)-3-phenyl]acetic Acid], for which the EC50 on human PPAR α worked out at 622 nM; in assay [1] it was 18 nM; on human PPAR γ, 468 nM.
For `COc1ccc(-c2cccc(CC(=O)O)c2)cc1/C(C)=N/OCc1ccc(C(F)(F)F)cc1` [Example 361, {4′-Methoxy-3′-[1-(4-trifluoromethylbenzyloxyimino)ethyl]-biphenyl-3-yl}acetic Acid], in that order: 719 nM, under 0.1 nM and 654 nM.
Consider `CCCOc1ccc(-c2cc(C(=O)O)ccc2Cl)cc1CNC(=O)c1ccc(C(F)(F)F)cc1F` [Example 199, 3-(3-{[(4-Trifluoromethyl-2-fluorobenzoyl)amino]methyl}-4-propoxyphenyl)-4-chlorobenzoic Acid], for which the EC50 on human PPAR α turned out to be 538 nM; in assay [1], 0.35 nM; at human PPAR γ, 136 nM.
`COc1ccc(-c2cccc(CC(=O)O)c2)cc1CNC(=O)c1ccc(C(F)(F)F)cc1F` [Example 220, 3-(3-{[(4-Trifluoromethyl-2-fluorobenzoyl)amino]methyl}-4-methoxyphenyl)-3-phenylacetic Acid]: the EC50 at human PPAR α came out at 750 nM; in assay [1], 0.5 nM; on human PPAR γ, 58 nM.
Take `CCOc1ccc(-c2cccc(CC(=O)O)c2)cc1CNC(=O)OCc1ccc(CC)cc1` [Example 302, {4′-Ethoxy-3′-[(4-ethylbenzyloxycarbonylamino)methyl]-biphenyl-3-yl}acetic Acid]: the figures for the EC50 (on human PPAR α; in assay [1]; at human PPAR γ) were 3 nM, 74 nM and 700 nM, respectively.
Take `COc1ccc(-c2ccc(C)c(C(=O)O)c2)cc1CNC(=O)c1ccc(Cl)cc1Cl` [Example 21, 3-(3-{[(2,4-Dichlorobenzoyl)amino]methyl}-4-methoxyphenyl)-6-methylbenzoic Acid]: the EC50 is 45 nM at human PPAR α, 116 nM in assay [1] and 43 nM on human PPAR γ.
On to `CCCOc1ccc(C(=O)NCc2cc(-c3cccc(/C=C(\CC)C(=O)O)c3)ccc2OC)c(Cl)c1` [Example 141, (E)-2-Ethyl-3-[3-(3-{[(4-propoxy-2-chlorobenzoyl)amino]methyl}-4-methoxyphenyl)phenyl]-2-propenoic Acid], for which a half-maximal response on human PPAR γ (EC50) required 31 nM.
As for `COc1ccc(-c2cccc(CC(=O)O)c2)cc1CCOc1ccc(Cl)cc1Cl` [Example 263, 3-{3-[2-(2,4-Dichlorophenoxy)ethyl]-4-methoxyphenyl}phenylacetic Acid], the EC50 in assay [1] was determined as 0.48 nM; at human PPAR γ, 1160 nM.
Take `COc1ccc(-c2cccc(CC(=O)O)c2)cc1OCC#Cc1cccc(C(F)(F)F)c1` [Ex 375, {3′-[3-(3-Trifluoromethylphenyl)-2-propynyloxy]-4′-methoxybiphenyl-3-yl}acetic Acid]: the concentration for a half-maximal effect (EC50) at human PPAR α worked out at 653 nM; in assay [1], 102 nM; on human PPAR γ it was 1280 nM.

The record behind these values is patent US7687664B2, “Carboxylic acid derivative, a salt thereof or an ester of them, and medicament comprising it” (Eisai R&D Management Co., Ltd., priority 2001, dated 2010).
